Patent US10155021B2, “Antimicrobial 4-oxoquinolizines” (Emergent Product Development Gaithersburg Inc., priority 2011, dated 2018)
In brackets after ≈: the same amount, converted by molar mass. Like-named read-outs stand apart in the source and are kept apart here.

What was measured:
[1] = system: S. aureus ATCC 43300 (MRSA, FQ-S); assay: MIC, selected panel of Gram-positive and Gram-negative strains (Example 5); format: cell-based, Staphylococcus aureus
A. baumannii ATCC 19606 = assay: as above; format: cell-based, Acinetobacter baumannii
P. aeruginosa ATCC 27853 = assay: as above; format: cell-based
[2] = system: S. aureus BAA-1556 (USA300-Type MRSA, FQ-R); assay: as above; format: cell-based, Staphylococcus aureus
E. coli ATCC 25922 = assay: as above; format: cell-based, Escherichia coli
S. aureus ATCC 25923 = assay: as above; format: cell-based
B. thailandensis E264 = assay: microbe, parasite or virus in culture; format: cell-based, Burkholderia thailandensis; conditions: Burkholderia thailandensis, E264, read-out: MIC B. thailandensis E264
B. thailandensis = assay: microbe, parasite or virus in culture; format: cell-based, Burkholderia thailandensis; conditions: Burkholderia thailandensis, read-out: MIC90 B. thailandensis
[3] = Staphylococcus aureus, read-out: MIC S. aureus ATCC 43300 (MRSA, FQ-S)
[4] = Acinetobacter baumannii, ATCC19606, read-out: MIC A. baumannii ATCC 19606
[5] = Pseudomonas aeruginosa, ATCC27853, read-out: MIC P. aeruginosa ATCC 27853
[6] = Staphylococcus aureus, read-out: MIC S. aureus BAA-1556 (USA300-Type MRSA, FQ-R)
[7] = Escherichia coli, ATCC25922, read-out: MIC E. coli ATCC 25922
[8] = Staphylococcus aureus, ATCC25923, read-out: MIC S. aureus ATCC 25923
[9] = Staphylococcus aureus; read-out: MIC S. aureus ATCC 43300 (MRSA, FQ-S)
[10] = Acinetobacter baumannii, ATCC19606; read-out: MIC A. baumannii ATCC 19606
[11] = Pseudomonas aeruginosa, ATCC27853; read-out: MIC P. aeruginosa ATCC 27853
[12] = Staphylococcus aureus; read-out: MIC S. aureus BAA-1556 (USA300-Type MRSA, FQ-R)
[13] = Escherichia coli, ATCC25922; read-out: MIC E. coli ATCC 25922
[14] = Staphylococcus aureus, ATCC25923; read-out: MIC S. aureus ATCC 25923

SMILES | MIC [1, 3] [µg/mL] | MIC (A. baumannii ATCC 19606; [4]) [µg/mL] | MIC (P. aeruginosa ATCC 27853; [5]) [µg/mL] | MIC [2, 6] [µg/mL] | MIC (E. coli ATCC 25922; [7]) [µg/mL] | MIC (S. aureus ATCC 25923; [8]) [µg/mL] | MIC (B. thailandensis E264) [µg/mL] | MIC [1, 9] [µg/mL] | MIC (A. baumannii ATCC 19606; [10]) [µg/mL] | MIC (P. aeruginosa ATCC 27853; [11]) [µg/mL] | MIC [2, 12] [µg/mL] | MIC (E. coli ATCC 25922; [13]) [µg/mL] | MIC (S. aureus ATCC 25923; [14]) [µg/mL] | MIC90 (B. thailandensis) [µg/mL]
Cc1c(-c2ccncc2)c(F)cn2c(=O)c(C(=O)[O-])cc(C3CC3)c12.[K+] [Compound 59K salt, potassium 8-(pyridin-4-yl)-1-cyclopropyl-7-fluoro-9-methyl-4-oxo-4H-quinolizine-3-carboxylate] | 0.016 | 0.25 | 4 | 0.5 | 0.064 | 0.032 | 0.5 | – | – | – | – | – | – | –
Cc1c(-c2ccc(O)nc2)ccn2c(=O)c(C(=O)[O-])cc(C3CC3)c12.[K+] [Compound 55K salt, potassium 8-(6-hydroxypyridin-3-yl)-1-cyclopropyl-9-methyl-4-oxo-4H-quinolizine-3-carboxylate] | 0.125 to 0.25 | 8 | > 8 | 8 | 0.5 | 0.5 | 8 | – | – | – | – | – | – | –
Cc1c(-c2ccc(O)c(CN)c2)ccn2c(=O)c(C(=O)[O-])cc(C3CC3)c12.[K+] [Compound 72K salt, potassium 8-(3-(aminomethyl)-4-hydroxyphenyl)-1-cyclopropyl-9-methyl-4-oxo-4H-quinolizine-3-carboxylate] | 0.008 to 0.016 | 0.25 | 0.5 | 0.25 | 0.008 to 0.016 | 0.008 | 2 | – | – | – | – | – | – | –
Cc1c(-c2ccc(N)c(CN)c2)ccn2c(=O)c(C(=O)[O-])cc(C3CC3)c12.[K+] [Compound 76K salt, potassium 8-(4-amino-3-(aminomethyl)phenyl)-1-cyclopropyl-9-methyl-4-oxo-4H-quinolizine-3-carboxylate] | 0.008 to 0.016 | 0.25 | 1 | 0.25 | 0.032 | 0.016 | 2 | – | – | – | – | – | – | –
Cc1c(-c2cnc3[nH]ccc3c2)ccn2c(=O)c(C(=O)[O-])cc(C3CC3)c12.[K+] [Compound 85K salt, potassium 8-(1H-pyrrolo[2,3-b]pyridin-5-yl)-1-cyclopropyl-9-methyl-4-oxo-4H-quinolizine-3-carboxylate] | ≤ 0.004 | 0.064 | 1 | 0.064 to 0.125 | 0.032 | ≤ 0.004 | 0.25 | – | – | – | – | – | – | –
Cc1c(-c2cnc(N)nc2)ccn2c(=O)c(C(=O)O)cc(C3CC3)c12 [Compound 57, 8-(2-aminopyrimidin-5-yl)-1-cyclopropyl-9-methyl-4-oxo-quinolizine-3-carboxylic acid] | – | – | – | – | – | – | > 8 | 0.25 (≈ 0.743 µM) | 8 (≈ 23.8 µM) | > 8 | 8 (≈ 23.8 µM) | 1 (≈ 2.97 µM) | 0.25 to 0.5 (≈ 0.743 to 1.49 µM) | –
Cc1c(-c2ccc3[nH]ncc3c2)c(F)cn2c(=O)c(C(=O)[O-])cc(C3CC3)c12.[K+] [Compound 75K salt, potassium 8-(1H-indazol-5-yl)-1-cyclopropyl-7-fluoro-9-methyl-4-oxo-4H-quinolizine-3-carboxylate] | ≤ 0.004 | 0.064 | 1 | 0.032 | 0.032 | ≤ 0.004 | 0.25 | – | – | – | – | – | – | –
Cc1c(-c2ccncc2F)ccn2c(=O)c(C(=O)[O-])cc(C3CC3)c12.[K+] [Compound 58K salt, potassium 8-(3-fluoropyridin-4-yl)-1-cyclopropyl-9-methyl-4-oxo-4H-quinolizine-3-carboxylate] | 0.064 | 1 | > 8 | 1 to 2 | 0.25 | 0.064 | 1 | – | – | – | – | – | – | –
Cc1c(-c2ccc(CN)s2)ccn2c(=O)c(C(=O)O)cc(C3CC3)c12 [Compound 13] | – | – | – | – | – | – | – | – | – | – | – | – | – | 0.195 (≈ 0.55 µM)
Cc1c(-c2ccc(C(=O)C(F)(F)F)cc2)ccn2c(=O)c(C(=O)O)cc(C3CC3)c12 [Compound 63, 8-[4-(2,2,2-trifluoroacetyl)phenyl]-1-cyclopropyl-9-methyl-4-oxo-quinolizine-3-carboxylic acid] | – | – | – | – | – | – | 2 (≈ 4.82 µM) | 0.032 (≈ 0.077 µM) | 2 (≈ 4.82 µM) | > 8 | 1 (≈ 2.41 µM) | 0.5 (≈ 1.2 µM) | 0.064 (≈ 0.154 µM) | –
Cc1cc(-c2ccn3c(=O)c(C(=O)[O-])cc(C4CC4)c3c2C)ccn1.[K+] [Compound 65K salt, potassium 8-(2-methylpyridin-4-yl)-1-cyclopropyl-9-methyl-4-oxo-4H-quinolizine-3-carboxylate] | 0.008 | 0.25 | 4 | 0.25 | 0.032 to 0.064 | 0.016 | 0.5 | – | – | – | – | – | – | –
Cc1c(-c2ccc(C#N)cc2)ccn2c(=O)c(C(=O)O)cc(C3CC3)c12 [Compound 14, 8-(4-cyanophenyl)-1-cyclopropyl-9-methyl-4-oxo-quinolizine-3-carboxylic acid] | – | – | – | – | – | – | – | – | – | – | – | – | – | < 0.048
Cc1c(-c2cn[nH]c2)ccn2c(=O)c(C(=O)[O-])cc(C3CC3)c12.[K+] [Compound 67K salt, potassium 8-(1H-pyrazol-4-yl)-1-cyclopropyl-9-methyl-4-oxo-4H-quinolizine-3-carboxylate] | 0.016 | 0.25 | 2 | 1 | 0.032 | 0.016 | 0.25 | – | – | – | – | – | – | –
Cc1cc(-c2ccn3c(=O)c(C(=O)O)cc(C4CC4)c3c2C)c(Cl)cc1N [Compound 11, 8-(2-chloro-4-amino-5-methyl-phenyl)-1-cyclopropyl-9-methyl-4-oxo-quinolizine-3-carboxylic acid] | – | – | – | – | – | – | – | – | – | – | – | – | – | < 0.048
Cc1c(-c2ccc3[nH]cnc3c2)ccn2c(=O)c(C(=O)[O-])cc(C3CC3)c12.[K+] [Compound 74K salt, potassium 8-(1H-benzo[d]imidazol-5-yl)-1-cyclopropyl-9-methyl-4-oxo-4H-quinolizine-3-carboxylate] | 0.016 | 0.5 | 8 | 0.5 | 0.064 to 0.125 | 0.016 | 2 | – | – | – | – | – | – | –
Cc1c(-c2ccc3c(c2)C(=O)NC3)ccn2c(=O)c(C(=O)[O-])cc(C3CC3)c12.[K+] [Compound 68K salt, potassium 8-(3-oxoisoindolin-5-yl)-1-cyclopropyl-9-methyl-4-oxo-4H-quinolizine-3-carboxylate] | ≤ 0.004 | 0.25 | 2 | 0.25 | 0.064 | ≤ 0.004 | 1 | – | – | – | – | – | – | –
Cc1ccc(-c2ccn3c(=O)c(C(=O)O)cc(C4CC4)c3c2C)cc1 [Compound 15, 8-(p-tolyl)-1-cyclopropyl-9-methyl-4-oxo-quinolizine-3-carboxylic acid] | – | – | – | – | – | – | – | – | – | – | – | – | – | < 0.048
Cc1c(-c2ccc(CN)o2)ccn2c(=O)c(C(=O)O)cc(C3CC3)c12 [Compound 12] | – | – | – | – | – | – | – | – | – | – | – | – | – | 0.39 (≈ 1.15 µM)
Cc1c(-c2cccc3[nH]ncc23)ccn2c(=O)c(C(=O)[O-])cc(C3CC3)c12.[K+] [Compound 82K salt, potassium 8-(1H-indazol-4-yl)-1-cyclopropyl-9-methyl-4-oxo-4H-quinolizine-3-carboxylate] | 0.016 | 1 | 8 | 1 | 0.125 to 0.25 | 0.016 | 4 | – | – | – | – | – | – | –
Cc1c(-c2ccc(N)nc2)c(F)cn2c(=O)c(C(=O)[O-])cc(C3CC3)c12.[K+] [Compound 60K salt, potassium 8-(6-aminopyridin-3-yl)-1-cyclopropyl-7-fluoro-9-methyl-4-oxo-4H-quinolizine-3-carboxylate] | – | 0.064 | 2 | 0.125 | 0.032 | 0.008 | 0.5 | – | – | – | – | – | – | –
Cc1c(-c2ccc3cn[nH]c3c2)ccn2c(=O)c(C(=O)[O-])cc(C3CC3)c12.[K+] [Compound 83K salt, potassium 8-(1H-indazol-6-yl)-1-cyclopropyl-9-methyl-4-oxo-4H-quinolizine-3-carboxylate] | ≤ 0.004 | 0.032 | 0.5 | 0.064 | 0.016 | ≤ 0.004 | – | – | – | – | – | – | – | –
Cc1c(-c2ccc3c(c2)NC(=O)C(N)C3)ccn2c(=O)c(C(=O)O)cc(C3CC3)c12 (centres unmarked) [Compound 54, 8-(3-amino-2-oxo-3,4-dihydro-1H-quinolin-7-yl)-1-cyclopropyl-9-methyl-4-oxo-quinolizine-3-carboxylic acid] | – | – | – | – | – | – | 4 (≈ 9.91 µM) | 0.064 (≈ 0.159 µM) | 4 (≈ 9.91 µM) | > 8 | 0.5 (≈ 1.24 µM) | 0.25 (≈ 0.62 µM) | 0.064 to 0.125 (≈ 0.159 to 0.31 µM) | –
